Data set [1] deals with T1, D2 -receptors (Oryctolagus cuniculus, UniProt G1T1Q0).
T1 construct: In the perfused rabbit ear artery test; from tissue; host or cells: perfused rabbit ear artery (receptors on sympathetic nerve terminals)
Put plainly: perfused rabbit ear artery test.

Data set [2] relates to cardio-accelerator nerve. Put plainly: cardio-accelerator nerve preparation in vivo in the dog.
Data set [3] has as its system perfused hind limb. The experiment in a line: perfused hind limb preparation in vivo in the dog.
Data set [4] has as its system DOCA-salt hypertensive rats. The experiment in a line: intravenous infusion in DOCA-salt hypertensive rats. It counts as in vivo, rat. An excerpt:
(§1) Intravenous infusion of this species of this invention in the DOCA-salt hypertensive and spontaneously hypertensive rats reduced blood pressure and heart rate.

The test system of data set [5] is spontaneously hypertensive rats. The experiment in a line: intravenous infusion in spontaneously hypertensive rats. Type of data set: in vivo, rat.
From the text: as §1

Data set [6] concerns conscious DOCA salt hypertensive rats. Put plainly: oral dosing in conscious DOCA salt hypertensive rats. Type of data set: in vivo, rat. To be noted: oral doses of 10 mg/kg.
A short description of data set [7]: absorption from the gastrointestinal tract of rats. To be noted: oral, compared with the 7-hydroxy congener. It counts as in vivo, rat.
The subject of data set [8] is presynaptic α-dopaminergic receptors (D2 -receptors). The experiment in a line: D2-agonist selectivity (general statement). Conditions: peripheral. An excerpt: Otherwise speaking, the main focus of action is at the presynaptic α-dopaminergic receptors which may also be called "D2 -receptors." Activation of the D2 -receptors on the sympathetic nerve terminals inhibits the release of norepinephrine, thereby, promoting vasodilation, among other beneficial cardiovascular actions and decreasing sympathetic side-effects caused by norepinephrine release in certain abnormal cardiovascular conditions.

The term EC50 denotes the concentration that produces a half-maximal response. A lower EC50 goes with a more potent agent.

Structures are written as SMILES.

T1 sequence (G1T1Q0 1-443): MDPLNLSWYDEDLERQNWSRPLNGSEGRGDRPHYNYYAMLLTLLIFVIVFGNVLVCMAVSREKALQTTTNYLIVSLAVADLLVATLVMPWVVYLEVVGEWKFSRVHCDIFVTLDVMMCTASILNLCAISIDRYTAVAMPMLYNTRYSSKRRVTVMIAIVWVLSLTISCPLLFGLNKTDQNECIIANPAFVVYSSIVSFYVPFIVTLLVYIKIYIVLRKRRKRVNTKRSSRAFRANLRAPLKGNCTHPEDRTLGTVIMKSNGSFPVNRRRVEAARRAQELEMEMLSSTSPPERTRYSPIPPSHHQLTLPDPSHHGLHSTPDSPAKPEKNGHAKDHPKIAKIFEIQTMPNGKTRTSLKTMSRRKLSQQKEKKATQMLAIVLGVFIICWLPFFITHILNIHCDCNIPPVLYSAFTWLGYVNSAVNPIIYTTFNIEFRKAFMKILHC

Regarding `CCCN(CCC)CCc1cccc2c1CC(=O)N2.Cl` [4-(2-di-n-propylaminoethyl)-2(3H)-indolone hydrochloride], the EC50 in data set [1] was 72 nM. Further, the activity in vivo result in data set [2] and in data set [3] was “active” throughout. The tachyphylaxis entry in data set [3] is recorded as “did not cause tachyphylaxis”. Further, the blood pressure result in data set [4] and in data set [5] was “reduced” in each case. In addition, the heart rate entry in data set [4] and in data set [5] was “reduced” in each case. For the same compound, in data set [6], the anti-hypertensive effect result is reported as “demonstrated an anti-hypertensive effect”. The “absorption from the gastrointestinal tract” value in data set [7] is on record as “more readily absorbed”. Further, the D2-agonist selectivity result in data set [8] is recorded as “selective peripheral D2 -agonists”.

The values are drawn from patent publication US4588740A, “Pharmaceutical methods using 4-aminoalkyl-2(3H)-indolones” (priority 1983, dated 1986).
